Measurements taken from patent US7456205B2, “Benzopyran compounds, process for preparing the same and their use” (Shanghai Institute of Materia Medica, Chinese Academy of …, priority 2003, dated 2008).

How the values were obtained:
[1] = system: 3T3-L1 cells; test: Insulin-sensitizing activity in 3T3-L1 preadipocyte model, triglyceride accumulation as indication of cell differentiation; assay type: cell-based; details: for The Percentage of Triglyceride Increased in 3T3-L1 Cells: with IBMX, DEX and insulin, average of 3 pores (rosiglitazone n = 22, mean ± SD); for insulin-sensitizing activity: verbal summary of Table 2
Experimental: The insulin-sensitizing agents can promote the differentiation of pre-adipocytes toward adipocyte. Thus insulin-sensitizing agents could be identified with the insex of the differentiation of pre-adipocytes. Following the methods reported in the literature [Kletzein B F. Mol. Pharm. 1991, 41, 393], the insulin-sensitizing activities of the compounds of formula (I) of the present invention were evaluated in 3T3-L1 preadipocyte model with triglyceride accumulation in cells as the indication of cell differentiation.
The 3T3-L1 cells were incubated in DMEM (Dulbecco's Modified Eagle's Medium) containing 10% NBS (newborn calf serum) and subcultured every 3 days. The cells were transferred to 24-pore plates, and after the pores were filled completely, the cells were treated with IBMX (isobutylmethylxanthine) (0.5 mmol/L), DEX (dexamethasone) (1 μmol/L) and insulin (1.0 μmol/L) for 48 h, meanwhile different amounts of test compounds were added into. The cells were incubated continuously until the end of the experiment. Cells were collected and the contents of triglyceride and protein therein were determined by colorimetry. Enhancements of triglyceride in cells after drug-administrating were calculated.
The positive control group was rosiglitazone, and the solvent control group was a culturing medium containing 0.1% of DMSO. […] Thus, the derivatives of the benzopyran compounds of the present invention can be used to control the blood glucose level in type II diabetes patients and inhibit the occurrence of complications caused by the type II diabetes.

| Structure (SMILES) | The Percentage of Triglyceride Increased in 3T3-L1 Cells ([1]; test compound 0.01 μmol/L) [%] | The Percentage of Triglyceride Increased in 3T3-L1 Cells ([1]; test compound 0.1 μmol/L) [%] | The Percentage of Triglyceride Increased in 3T3-L1 Cells ([1]; test compound 1 μmol/L) [%] | melting point [°C] | insulin-sensitizing activity [1] |
| --- | --- | --- | --- | --- | --- |
| COC(=O)c1cc2ccc(OCc3ccccc3)cc2oc1=O [Compound 1, 7-benzyloxyl-2-oxo-2H-1-benzopyran-3-carboxylic acid methyl ester] | −5.73 | −0.43 | 7.93 | 129 to 130 | – |
| CCc1ccc(CCOc2ccc3c(c2)OC(=O)C(C(=O)OC)C3)nc1 (centres unmarked) [Compound 12, 7-[2-(5-ethyl-2-pyridine)ethyoxyl]-3,4-dihydro-2-oxo-4H-1-benzopyran-3-carboxylic acid methyl ester] | 4.13 | −2.40 | 2.53 | – | – |
| Cc1oc(-c2ccccc2)nc1CCOc1ccc2c(c1)OC(=O)C(C(=O)O)C2 (centres unmarked) [Compound 18, 7-[2-(5-methyl-2-phenyl-4-oxazole)ethoxyl]-3,4-dihydro-2-oxo-4H-1-benzopyran-3-carboxylic acid] | 18.65 | 29.28 | 30.24 | – | stronger insulin-sensitizing activity |
| Cc1oc(-c2ccccc2)nc1CCOc1ccc2cc(C(=O)O)c(=O)oc2c1 [Compound 10, 7-[2-(5-methyl-2-phenyl-4-oxazole)ethoxyl]-2-oxo-2H-1-benzopyran-3-carboxylic acid] | −3.28 | 26.68 | 32.30 | – | – |
| COC(=O)C1Cc2ccc(OCc3ccc(C(F)(F)F)cc3)cc2OC1=O (centres unmarked) [Compound 14, 7-(4-trifluoromethylbenzyloxyl)-3,4-dihydro-2-oxo-4H-1-benzopyran-3-carboxylic acid methyl ester] | 19.33 | −16.81 | −2.69 | – | – |
| O=C(O)c1cc2ccc(OCCn3ccc4ccccc43)cc2oc1=O [Compound 9, 7-[2-(1-indole)ethoxyl]-2-oxo-2H-1-benzopyran-3-carboxylic acid] | −5.25 | −8.42 | −12.95 | – | – |
| COC(=O)c1cc2ccc(OCCc3ccccc3)cc2oc1=O [Compound 3, 7-(2-phenyl)ethoxyl-2-oxo-2H-1-benzopyran-3-carboxylic acid methyl ester] | 4.57 | −2.61 | −5.50 | 100 to 101 | – |
| COC(=O)c1cc2ccc(OCCc3nc(-c4ccccc4)oc3C)cc2oc1=O [Compound 6, 7-[2-(5-methyl-2-phenyl-4-oxazole)ethoxyl]-2-oxo-2H-1-benzopyran-3-carboxylic acid methyl ester] | 27.04 | 67.24 | 52.45 | – | stronger insulin-sensitizing activity |
| COC(=O)C1Cc2ccc(OCCN(C)c3nc4ccccc4o3)cc2OC1=O (centres unmarked) [Compound 16, 7-[2-[N-methyl-N-(2-benzoxazole)amino]ethoxyl]-3,4-dihydro-2-oxo-4H-1-benzopyran-3-carboxylic acid methyl ester] | 11.01 | 29.32 | 25.09 | 88 to 90 | – |
| Cc1oc(-c2ccccc2)nc1CCOc1ccc2cc(C(=O)OC(C)(C)C)c(=O)oc2c1 [Compound 17, 7-[2-(5-methyl-2-phenyl-4-oxazole)ethoxyl]-2-oxo-2H-1-benzopyran-3-carboxylic acid tert-butyl ester] | 18.33 | 28.20 | 33.01 | – | stronger insulin-sensitizing activity |
| COC(=O)c1cc2ccc(OCCn3ccc4ccccc43)cc2oc1=O [Compound 5, 7-[2-(1-indole)ethoxyl]-2-oxo-2H-1-benzopyran-3-carboxylic acid methyl ester] | 7.88 | 27.58 | 34.74 | – | – |
| COC(=O)C1Cc2ccc(OCCc3ccccc3)cc2OC1=O (centres unmarked) [Compound 11, 7-(2-phenyl)ethoxyl-3,4-dihydro-2-oxo-4H-1-benzopyran-3-carboxylic acid methyl ester] | −9.13 | 12.90 | 14.10 | – | – |
| O=C(O)c1cc2ccc(OCc3ccccc3)cc2oc1=O [Compound 2, 7-benzyloxyl-2-oxo-2H-1-benzopyran-3-carboxylic acid] | 20.86 | 18.31 | 14.63 | – | – |
| CCc1ccc(CCOc2ccc3cc(C(=O)OC)c(=O)oc3c2)nc1 [Compound 4, 7-[2-(5-ethyl-2-pyridine)ethyoxyl]-2-oxo-2H-1-benzopyran-3-carboxylic acid methyl ester] | 7.26 | 11.55 | 17.71 | – | – |
| COC(=O)c1cc2ccc(OCCN(C)C(=O)OC(C)(C)C)cc2oc1=O [Compound 15, 7-[2-(N-tert-butoxycarbonyl-N-methylamino)ethoxyl]-2-oxo-2H-1-benzopyran-3-carboxylic acid methyl ester] | 26.38 | 26.73 | 44.70 | 128 to 129 | – |
| COC(=O)C1Cc2ccc(OCCc3nc(-c4ccccc4)oc3C)cc2OC1=O (centres unmarked) [Compound 13, 7-[2-(5-methyl-2-phenyl-4-oxazole)ethoxyl]-3,4-dihydro-2-oxo-4H-1-benzopyran-3-carboxylic acid methyl ester] | 28.33 | 52.92 | 64.69 | – | stronger insulin-sensitizing activity |
| CCc1ccc(CCOc2ccc3cc(C(=O)O)c(=O)oc3c2)nc1 [Compound 8, 7-[2-(5-ethyl-2-pyridine)ethyoxyl]-2-oxo-2H-1-benzopyran-3-carboxylic acid] | 12.25 | 3.67 | 5.66 | – | – |
| O=C(O)c1cc2ccc(OCCc3ccccc3)cc2oc1=O [Compound 7, 7-(2-phenyl)ethoxyl-2-oxo-2H-1-benzopyran-3-carboxylic acid] | 7.97 | −1.10 | −6.29 | – | – |
